How the values were obtained:
Monoglyceride lipase = molecular target: T1, Monoglyceride lipase (Mus musculus, UniProt O35678); experiment: (§1) In Vitro Competitive Activity-Based Protein Profiling: Proteomes (mouse brain membrane fraction or cell lysates for mouse assays; human prefrontal cortex or cell membrane fractions for human assays) (50 μL, 1.0 mg/mL total protein concentration) were preincubated with varying concentrations of inhibitors at 37° C. After 30 min, FP—Rh or HT-01 (1.0 μL, 50 μM in DMSO) was added and the mixture was incubated for another 30 min at 37° C. Reactions were quenched with SDS loading buffer (15 μL-4×) and run on SDS-PAGE. Following gel imaging, serine hydrolase activity was determined by measuring fluorescent intensity of gel bands corresponding to MAGL and FAAH using ImageJ 1.43u software.Preparation of Mouse Brain Proteomes from Inhibitor Treated Mice.Inhibitors were administered to wild-type C57Bl/6J by oral gavage in a vehicle of polyethylene glycol. Each animal was sacrificed 4 h following administration and brain proteomes were prepared and analyzed according to previously established methods (See Niphakis, M. J., et al. (2011) ACS Chem. Neurosci. and Long, J. Z., et al. Nat. Chem. Biol. 5:37-44).
T1 sequence (O35678 whole entry): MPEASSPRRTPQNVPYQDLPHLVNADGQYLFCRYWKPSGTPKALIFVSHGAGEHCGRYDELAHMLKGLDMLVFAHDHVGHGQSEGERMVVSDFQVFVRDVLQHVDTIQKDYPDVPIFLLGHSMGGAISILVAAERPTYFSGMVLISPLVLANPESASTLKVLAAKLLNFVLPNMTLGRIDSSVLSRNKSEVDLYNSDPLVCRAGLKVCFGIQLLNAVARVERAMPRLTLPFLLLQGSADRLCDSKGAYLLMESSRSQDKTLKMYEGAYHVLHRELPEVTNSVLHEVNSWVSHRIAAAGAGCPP

[1] = molecular target: T2, Fatty-acid amide hydrolase 1 (Mus musculus, UniProt O08914); experiment: as §1
T2 sequence (O08914 whole entry): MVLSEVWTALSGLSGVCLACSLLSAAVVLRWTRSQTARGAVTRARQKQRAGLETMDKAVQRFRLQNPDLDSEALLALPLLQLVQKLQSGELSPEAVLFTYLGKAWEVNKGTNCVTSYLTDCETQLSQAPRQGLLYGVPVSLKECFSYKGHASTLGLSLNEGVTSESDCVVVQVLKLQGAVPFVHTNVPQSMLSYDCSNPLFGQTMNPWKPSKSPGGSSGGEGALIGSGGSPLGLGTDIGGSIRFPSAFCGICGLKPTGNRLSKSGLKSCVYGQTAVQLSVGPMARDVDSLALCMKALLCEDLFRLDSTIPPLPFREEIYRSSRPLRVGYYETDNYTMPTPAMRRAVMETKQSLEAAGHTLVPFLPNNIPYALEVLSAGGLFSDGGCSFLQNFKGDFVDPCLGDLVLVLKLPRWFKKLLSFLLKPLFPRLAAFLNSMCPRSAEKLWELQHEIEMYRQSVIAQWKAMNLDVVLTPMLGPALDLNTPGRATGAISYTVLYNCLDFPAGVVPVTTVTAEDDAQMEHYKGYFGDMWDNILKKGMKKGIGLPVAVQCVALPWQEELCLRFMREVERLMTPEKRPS

SMILES | IC50 (Monoglyceride lipase) [nM] | IC50 [1] [nM]
CC(=O)N(C)c1cnn(C(=O)N2CC3CN(Cc4cc(Cl)cc(N5CCC6(CCOCC6)C5)c4)CC3C2)c1 (stereo not given) | < 100 | < 100
CC(=O)N(C)c1cnn(C(=O)N2CCN(Cc3ccc(C(F)(F)F)cc3)CC2)c1 | < 100 | –
CC(=O)N(C)c1cnn(C(=O)N2CC3CN(Cc4cccc(Oc5ccccn5)c4)CC3C2)c1 (stereo not given) | – | < 100
CC(=O)N(C)c1cnn(C(=O)N2CCN(Cc3ccc(Cl)c(Cl)c3)CC2)c1 | < 100 | –
